Results as given in patent publication US10155781B2, “Co-crystals, salts and solid forms of tenofovir alafenamide” (Gilead Sciences, Inc., priority 2015, dated 2018).
Counter-ions that a name gives are not always drawn.

Conditions: solid material, compared by XRPD
From the text: Two XRPD systems were used for the characterization of the samples.
(1) Bruker AXS C2 GADDS diffractometer uses Cu Kalpha radiation (40 kV, 40 mA), automated XYZ stage, laser video microscope for auto-sample positioning and a HiStar 2-dimensional area detector. X-ray optics consists of a single Göbel multilayer mirror coupled with a pinhole collimator of 0.3 mm. The beam divergence, i.e. the effective size of the X-ray beam on the sample, was approximately 4 mm. A θ-θ continuous scan mode was employed with a sample-detector distance of 20 cm which gives an effective 20 range of 3.2°-29.7°. Typically the sample was exposed to the X-ray beam for 120 seconds. The software used for data collection was GADDS for XP/2000 4.1.36 and the data was analyzed and presented using Diffrac Plus EVA v13.0.0.2 or v15.0.0.0.
Samples run under ambient conditions were prepared as flat plate specimens using powder as received without grinding. Approximately 1-2 mg of the sample was lightly pressed on a glass slide to obtain a flat surface.
(2) Bruker D8 diffractometer uses Cu Ka radiation (40 kV, 40 mA), θ-2θ goniometer, and divergence of V4 and receiving slits, a Ge monochromator and a Lynxeye detector. The software used for data collection was Diffrac Plus XRD Commander v2.6.1 and the data was analyzed and presented using Diffrac Plus EVA v13.0.0.2 or v15.0.0.0.
Samples were run under ambient conditions as flat plate specimens using powder as received. The sample was gently packed into a cavity cut into polished, zero-background (510) silicon wafer. The sample was rotated in its own plane during analysis. The details of the data collection was: Angular range: 2 to 42° 2θ; Step size: 0.05° 2θ; Collection time: 0.5 s/step
(3) PANanalytical XPERT-PRO diffractometer at ambient conditions under the following experimental settings: 45 KV, 40 mA, Kα1=1.5406 Å, scan range 2 to 40°, step size 0.0084 or 0.0167°, measurement time: 5 min.

Row | SMILES | XRPD pattern after storage at 40° C. 75% RH for 14 days (solid form stability)
1 | CC(C)OC(=O)[C@H](C)N[P@](=O)(CO[C@H](C)Cn1cnc2c(N)ncnc21)Oc1ccccc1 [Tenofovir alafenamide methanesulfonate pattern 1] | changed to another form
2 | CC(C)OC(=O)[C@H](C)N[P@](=O)(CO[C@H](C)Cn1cnc2c(N)ncnc21)Oc1ccccc1 [tenofovir alafenamide mucate pattern 1, Tenofovir Alafenamide Mucate] | no change
3 | CC(C)OC(=O)[C@H](C)N[P@](=O)(CO[C@H](C)Cn1cnc2c(N)ncnc21)Oc1ccccc1 [tenofovir alafenamide L-malate, Tenofovir Alafenamide L-Malate] | no change
4 | CC(C)OC(=O)[C@H](C)N[P@](=O)(CO[C@H](C)Cn1cnc2c(N)ncnc21)Oc1ccccc1 [tenofovir alafenamide benzenesulfonate, Tenofovir Alafenamide Benzenesulfonate] | no change
5 | CC(C)OC(=O)[C@H](C)N[P@](=O)(CO[C@H](C)Cn1cnc2c(N)ncnc21)Oc1ccccc1 [tenofovir alafenamide oxalate, Tenofovir Alafenamide Oxalate] | no change in XRPD
6 | CC(C)OC(=O)[C@H](C)N[P@](=O)(CO[C@H](C)Cn1cnc2c(N)ncnc21)Oc1ccccc1 [tenofovir alafenamide ethanesulfonate, Tenofovir Alafenamide Ethanesulfonate] | no XRPD change
7 | CC(C)OC(=O)[C@H](C)N[P@](=O)(CO[C@H](C)Cn1cnc2c(N)ncnc21)Oc1ccccc1 [tenofovir alafenamide mucate pattern 2, Tenofovir Alafenamide Mucate] | no change
8 | CC(C)OC(=O)[C@H](C)N[P@](=O)(CO[C@H](C)Cn1cnc2c(N)ncnc21)Oc1ccccc1 [tenofovir alafenamide saccharin, Tenofovir Alafenamide Saccharin] | same XRPD pattern was obtained

Same assay, conditions: solid material, compared by XRPD, Hydrochloride

Row | SMILES | XRPD pattern after storage at 40° C. 75% RH for 14 days (solid form stability)
9 | CC(C)OC(=O)[C@H](C)N[P@](=O)(CO[C@H](C)Cn1cnc2c(N)ncnc21)Oc1ccccc1 [tenofovir alafenamide hydrochloride, Tenofovir Alafenamide Hydrochloride] | remained unchanged
